Measured values taken from the supplement of paper PMC4862054.

How the values were obtained:
Test in all cases: normalised viability (% of control), CellTiter-Blue; higher = more viable cells (about 100 = DMSO control)
Conditions in all cases: incubation time: 72 h
[1] = tested on: BT-474
Description: (§1)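 DSRT, CellTiter-Blue viability, 72 h incubation. Signal is normalised to DMSO and benzethonium chloride controls. Value is the normalised response at dose 3.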

[2] = tested on: BT-549
Description: as §1

[3] = tested on: CAL-120
Description: as §1

[4] = tested on: CAL-148
Description: as §1

[5] = tested on: CAL-51
Description: as §1

[6] = tested on: CAL-85-1
Description: as §1

[7] = tested on: DU-4475
Description: as §1

[8] = tested on: HCC1143
Description: as §1

[9] = tested on: HCC1599
Description: as §1

[10] = tested on: HCC1937
Description: as §1

[11] = tested on: HDQ-P1
Description: as §1

[12] = tested on: Hs578T
Description: as §1

[13] = tested on: MDA-MB-231
Description: as §1

[14] = tested on: MDA-MB-436
Description: as §1

[15] = tested on: MDA-MB-453
Description: as §1

[16] = tested on: MDA-MB-468
Description: as §1

[17] = tested on: MFM-223
Description: as §1

[18] = tested on: SK-BR-3
Description: as §1

[19] = tested on: BT-549; remark: listed apart in the source
Outline: (§2)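 After 72 h on compound-loaded 384-well plates, breast cancer cell lines received 2.5 µl CellTiter-Blue reagent for 2 h at 37 °C. Fluorescence at 560/590 nm was scaled per plate so that vehicle was 100 and a positive kill control was 0. The value stands for normalised viability at a single listed concentration of the series.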

[20] = tested on: CAL-120; remark: listed apart in the source
Outline: as §2

[21] = tested on: CAL-148; remark: listed apart in the source
Outline: as §2

[22] = tested on: CAL-51; remark: listed apart in the source
Outline: as §2

[23] = tested on: DU-4475; remark: listed apart in the source
Outline: as §2

[24] = tested on: HCC1143; remark: listed apart in the source
Outline: as §2

[25] = tested on: HCC1599; remark: listed apart in the source
Outline: as §2

[26] = tested on: HCC1937; remark: listed apart in the source
Outline: as §2

[27] = tested on: HDQ-P1; remark: listed apart in the source
Outline: as §2

[28] = tested on: MDA-MB-436; remark: listed apart in the source
Outline: as §2

[29] = tested on: MFM-223; remark: listed apart in the source
Outline: as §2

[30] = tested on: SK-BR-3; remark: listed apart in the source
Outline: as §2

COc1ncc(-c2ccc3nccc(-c4ccnnc4)c3c2)cc1NS(=O)(=O)c1ccc(F)cc1F
Conditions | normalised viability [%]
[1], 10 nM | 64.7
[2], 10 nM | 95.9
[3], 10 nM | 60.2
[4], 1 nM | 111
[5], 1 nM | 85.7
[6], 1 nM | 88.8
[7], 1 nM | 88.1
[8], 10 nM | 68.2
[9], 10 nM | 57.1
[10], 10 nM | 78.5
[11], 1 nM | 97.9
[12], 10 nM | 76.8
[13], 10 nM | 80
[14], 10 nM | 83
[15], 1 nM | 89.3
[16], 10 nM | 86.2
[17], 10 nM | 53.1
[18], 10 nM | 32.7
[19], 1 nM | 88
[19], 100 nM | 29.4
[19], 1000 nM | 14.7
[20], 1 nM | 84.2
[20], 100 nM | 28.9
[20], 1000 nM | 16.1
[21], 0.3 nM | 88.2
[21], 3 nM | 96.4
[21], 10 nM | 85.4
[22], 0.3 nM | 93.7
[22], 3 nM | 75.3
[22], 10 nM | 56.5
[23], 0.3 nM | 87.5
[23], 3 nM | 94.4
[23], 10 nM | 82.1
[24], 1 nM | 72.4
[24], 100 nM | 35.4
[24], 1000 nM | 16.5
[25], 1 nM | 88
[25], 100 nM | 34.5
[25], 1000 nM | 29.3
[26], 1 nM | 94
[26], 100 nM | 47.2
[26], 1000 nM | 32.5
[27], 0.3 nM | 95.3
[27], 3 nM | 70.5
[27], 10 nM | 51.8
[28], 1 nM | 105
[28], 100 nM | 34.2
[28], 1000 nM | 22.8
[29], 1 nM | 99.9
[29], 100 nM | 21.3
[29], 1000 nM | 14.6
[30], 1 nM | 77.7
[30], 100 nM | 14.2
[30], 1000 nM | 9.4

C[C@@]1(C(=O)Nc2ccc(F)nc2)CCCN1c1nc(Nc2cc(C3CC3)n[nH]2)c2cccn2n1
Conditions | normalised viability [%]
[1], 100 nM | 118
[2], 100 nM | 109
[3], 100 nM | 91.8
[4], 10 nM | 94
[5], 10 nM | 97
[6], 10 nM | 93.5
[7], 10 nM | 90.4
[8], 100 nM | 72.8
[9], 100 nM | 73.3
[10], 100 nM | 88.3
[11], 10 nM | 89.5
[12], 100 nM | 79.4
[13], 100 nM | 93.8
[14], 100 nM | 92.6
[15], 10 nM | 112
[16], 100 nM | 101
[17], 100 nM | 88.2
[18], 100 nM | 92.6
[19], 10 nM | 97.8
[19], 1000 nM | 77.6
[19], 10000 nM | 34.4
[20], 10 nM | 94
[20], 1000 nM | 63
[20], 10000 nM | 21.1
[21], 3 nM | 88.5
[21], 30 nM | 99.1
[21], 100 nM | 95.1
[22], 3 nM | 99
[22], 30 nM | 97.4
[22], 100 nM | 84.9
[23], 3 nM | 97.3
[23], 30 nM | 91.7
[23], 100 nM | 83.8
[24], 10 nM | 105
[24], 1000 nM | 64.1
[24], 10000 nM | 45.6
[25], 10 nM | 92.5
[25], 1000 nM | 55
[25], 10000 nM | 54.1
[26], 10 nM | 127
[26], 1000 nM | 73.2
[26], 10000 nM | 29.4
[27], 3 nM | 120
[27], 30 nM | 82
[27], 100 nM | 73.5
[28], 10 nM | 122
[28], 1000 nM | 94.3
[28], 10000 nM | 33.9
[29], 10 nM | 88.5
[29], 1000 nM | 52.6
[29], 10000 nM | 25.3
[30], 10 nM | 99.1
[30], 1000 nM | 71
[30], 10000 nM | 56.4

COc1c(C)cnc(Cn2cnc3c(Cl)nc(N)nc32)c1C [BIIB021]
Conditions | normalised viability [%]
[1], 100 nM | 59.4
[2], 100 nM | 52.6
[3], 100 nM | 27.6
[4], 10 nM | 82.3
[5], 10 nM | 100
[6], 10 nM | 87.5
[7], 10 nM | 82.6
[8], 100 nM | 58.8
[9], 100 nM | 101
[10], 100 nM | 59.6
[11], 10 nM | 114
[12], 100 nM | 64.7
[13], 100 nM | 61.4
[14], 100 nM | 89.8
[15], 10 nM | 76.4
[16], 100 nM | 68.9
[17], 100 nM | 53.9
[18], 100 nM | 23.9
[19], 10 nM | 87.8
[19], 1000 nM | 36.5
[19], 10000 nM | 31.1
[20], 10 nM | 84.1
[20], 1000 nM | 18.4
[20], 10000 nM | 15.2
[21], 3 nM | 87
[21], 30 nM | 88.6
[21], 100 nM | 72.3
[22], 3 nM | 103
[22], 30 nM | 102
[22], 100 nM | 101
[23], 3 nM | 94.8
[23], 30 nM | 76.1
[23], 100 nM | 80.8
[24], 10 nM | 80.8
[24], 1000 nM | 32.1
[24], 10000 nM | 30.6
[25], 10 nM | 102
[25], 1000 nM | 58.8
[25], 10000 nM | 40.7
[26], 10 nM | 83.1
[26], 1000 nM | 25.1
[26], 10000 nM | 22.1
[27], 3 nM | 110
[27], 30 nM | 110
[27], 100 nM | 77.8
[28], 10 nM | 92.5
[28], 1000 nM | 43.5
[28], 10000 nM | 25.5
[29], 10 nM | 81.9
[29], 1000 nM | 23
[29], 10000 nM | 23.8
[30], 10 nM | 85.7
[30], 1000 nM | 14.5
[30], 10000 nM | 12.8
